Assay [1] deals with Onchocerca ochengi microfilariae. The assay can be described thus: O. ochengi microfilariae (Mf) motility assay, primary and secondary screens. The format is cell-based. Conditions: for inhibition at 30 µM: 24 h, read-out: % Mf Motility Reduction after 24 h; for IC50: read-out: IC50 Mf; for effect on motility of microfilariae (in words): dose-dependent manner; for SI Mf: selectivity index = IC50 on LLC-MK2 cells (CC50) / IC50 on parasites. As for the experimental part: Briefly, Mf were prepared using the method described by Cho-Ngwa et al., with slight modifications. A few skin snips were obtained from different locations and incubated in aliquots of culture medium for 15 min, after which the emergent Mf were qualified and quantified using an inverted microscope and standard atlases. The leftover pieces of skin were shaved, rinsed, sterilized with 70% ethanol and sliced into thin slivers. The slivers were incubated in CCM for 2 h, and the emergent highly motile O. ochengi Mf were concentrated by centrifugation. The Mf were transferred to 96-well micro titer plates (15 Mf/100 μL/well) containing a fully confluent LLC-MK2 cell layer in 100 μL of CCM. This was monitored for viability and sterility for 24 h before addition of test and control compounds.
The biological assays were conducted in duplicate in the 96-well microtiter plates. The Mf were incubated with the drug for 120 h in a total of 200 μL of medium. Mf viability was assessed by microscopy once every day and motility inhibition scores were recorded. […] Motility inhibition correlates to drug activity. The positive control drug was amorcazine at 30 μM, and negative control was the diluent (DMSO).
Compounds showing 100% activity in the primary screens were re-tested as described under primary screens to determine the IC50 values. All assays were repeated at least once. The selectivity index (SI) of each extract was calculated as the ratio of the IC50 of the extract on the mammalian cell (termed CC50) to the IC50 on parasites.

Assay [2] deals with Onchocerca ochengi adult male worms. Nature of the assay: O. ochengi adult male worm motility assay, primary and secondary screens. It is filed as cell-based. Conditions: for IC50: read-out: IC50 Adult Male Worm; for effect on motility of adult male worms (in words): dose-dependent manner; for SI Adult Male Worm: selectivity index = IC50 on LLC-MK2 cells (CC50) / IC50 on parasites. Here is the method:
(§1) The isolation of O. ochengi adult worms was performed as described previously by Cho-Ngwa et al.. Briefly, fresh pieces of umbilical cattle skin with palpable nodules bought from butchery in Douala, Cameroon were washed, drained and sterilized with 70% ethanol. The worms were carefully scraped out of the nodules as single masses and temporarily submerged in 1 mL complete culture medium, CCM [RPMI-1640 (Sigma-Aldrich, St. Louis, MO, USA) supplemented with 25 mM HEPES, 2 g/L sodium bicarbonate, 2 mM L-glutamine, 5% newborn calf serum (SIGMA, St. Louis, MO, USA), 150 units/mL penicillin, 150 µg/mL streptomycin and 0.5 µg/mL amphotericin B (SIGMA, St. Louis, MO, USA), pH 7.4)] using 24-well plates. The adult worms were incubated in the culture medium overnight in a CO2 incubator, during which period the male worms migrated out of the nodular masses. Only wells containing viable worms received treatment with test compounds. Damaged worms and worms from putrefied nodules were discarded. The viability of worms retained for the assay was ascertained by visual and microscopic examination of adult male worm motility using an inverted microscope.
(§2) The compounds were tested on […] at a single concentration of 30 μM, in duplicate wells. […] The female worms were removed and incubated in 500 μL of 0.5 μg/mL MTT for the last 30 min of incubation. Inhibition of formazan formation from MTT directly correlates with worm death. The worms were blotted on absorbent paper and observed visually for blue coloration against a white background. […] Auranofin at 10 μM, which had previously shown activity against O. ochengi adult worms and Mf, was used as a positive control, while negative control wells received the diluent, 2% DMSO only, previously shown to have no effect on parasite viability. The solvent DMSO (2%) was used as a negative control. […] Furthermore, the toxicity of DMSO decreases with dilution.
Adult male worm motility was evaluated with the aid of an inverted microscope.
(§3) The pure compounds with 100% activity at primary screens were re-tested as described under primary screens, in order to determine the IC50 values. The IC50 assays were performed in triplicate and each experiment repeated for confirmation. The means of all activities at a concentration were calculated and used in the statistical analyses. GraphPadPrism version 6.0 (GraphPad Software, San Diego, CA, USA) was used to generate dose response curves from which the IC50 values were obtained.

Another assay has as its system Onchocerca ochengi. Set-up: method as in earlier work. As to conditions: from stem bark of V. africana; cited from earlier work.
The test system of assay [3] is Onchocerca ochengi adult female worms. The assay can be described thus: O. ochengi adult female worm viability, MTT/formazan assay. It is filed as cell-based. As to conditions: for killing at 30 µM: Onchocerca ochengi, 120 h, read-out: % Adult Female Worm Death after 120 h; for activity on adult female worms (in words): biochemical assessment at 30 μM; for IC100 Adult Female Worm: secondary screen. As for the experimental part: as §1, §2, §3

For assay [4], the system named is Monkey kidney epithelial cells (LLC-MK2). The assay can be described thus: Cytotoxicity on monkey kidney epithelial cells, microscopic. It is filed as cell-based. Conditions: read-out: IC50 Monkey Kidney Cells (LLC-MK2). As for the experimental part: Monkey kidney epithelial cells (LLC-MK2) (ATCC, Manassas, VA, USA) were cultured at 37 °C in humidified air with 5% CO2 in a Hera Cell-150 incubator (Thermo Electron, Karlsruhe, Germany) until the cell layer was almost confluent. The cell suspension was dispensed into 96-well micro titer plates (200 µL/well) and kept in the incubator for 3–5 days for cells to grow and become fully confluent. These cells served as feeder layers for the Mf assays and were also used for cytotoxicity studies.
Cytotoxicity of the pure compounds with anti-onchocercal activities was assessed on LLC-MK2 cells, microscopically, on day 5 of the Mf assay. Living cells were flattened out and attached to the culture plate, while dead cells were rounded up and detached from the plate. The IC50 values for these cells were estimated from the morphological deformation data.

The subject of assay [5] is Onchocerca ochengi adult male worms. Nature of the assay: O. ochengi adult male worm motility assay, primary and secondary screens. The format is cell-based. As to conditions: for inhibition at 30 µM: Onchocerca ochengi, 24 h, read-out: % Adult Male Worm Motility Reduction after 24 h.

Where two headings read alike, the source gives them in different places. Some results are limits rather than exact numbers.

By IC50 is commonly meant the concentration that inhibits the measured activity by half.

For `CC[C@H]1CC2CN3CCc4c([nH]c5ccc(OC)cc45)[C@](C(=O)OC)(C2)[C@H]13` (stereo in doubt) [Compound 2, voacangine], the inhibition at 30 µM in assay [1] (Onchocerca ochengi, primary screen, 30 μM) was determined as 100%. Also, the 50% inhibitory concentration (IC50) in assay [1] (Onchocerca ochengi, secondary screen, motility) was 5.49 µM. In assay [1], the “effect on motility of microfilariae (in words)” value was “inhibit the motility” and the “SI Mf” value was found to be 5.46. Besides, the “IC100 Mf” value in assay [1] (secondary screen) was 10 µM. Besides, in assay [2] (Onchocerca ochengi), the IC50 was 9.07 µM. In assay [2], the “effect on motility of adult male worms (in words)” value is listed as “inhibit the motility” and the “SI Adult Male Worm” value is 3.30. Also, in assay [2] (secondary screen), the “IC100 Adult Male Worm” value turned out to be 20 µM. Further, the “activity against Onchocerca ochengi (in words)” value in the assay on Onchocerca ochengi is “showing activity”. In assay [3], the killing at 30 µM is 100%, the “activity on adult female worms (in words)” value is given as “moderately active” and the “IC100 Adult Female Worm” value was >30 µM. Further, the IC50 in assay [4] (Primates, LLC-MK2, 120 h, cytotoxicity, day 5, estimated from morphological deformation) was ≥ 30 µM. Further, the inhibition at 30 µM in assay [5] was 100%.
Consider `COc1ccc2[nH]c3c(c2c1)CCN1CC2CC3C1C([C@H](C)O)C2` (some centres unmarked) [Compound 6, iboxygaine], for which, in assay [1] (Onchocerca ochengi), the inhibition at 30 µM turned out to be 100% and the IC50 was 4.72 µM. Also, in assay [1], the “effect on motility of microfilariae (in words)” value is reported as “inhibit the motility” and the “SI Mf” value is recorded as 6.35. In addition, the “IC100 Mf” value in assay [1] (secondary screen) is 9.44 µM. Besides, the IC50 in assay [2] (Onchocerca ochengi) was 9.07 µM. Moreover, in assay [2], the “effect on motility of adult male worms (in words)” value is “inhibit the motility” and the “SI Adult Male Worm” value stood at 3.30. Further, the “IC100 Adult Male Worm” value in assay [2] (secondary screen) came out at 18.14 µM. In assay [3], the killing at 30 µM was 50%, the “activity on adult female worms (in words)” value is “moderately active” and the “IC100 Adult Female Worm” value was >30 µM. In addition, the IC50 in assay [4] (Primates, LLC-MK2, 120 h) is ≥ 30 µM. In assay [5], the inhibition at 30 µM stood at 100%.
With `C/C=C1/CN(C)C2Cc3c([nH]c4ccccc34)[C@@H](c3cc4[nH]c5c(c4cc3OC)CCN3CC4CC([C@H](C)O)C3[C@@]5(C(=O)OC)C4)CC1C2C(=O)OC` (some centres unmarked) [Compound 8, voacorine], in assay [1] (Onchocerca ochengi), the inhibition at 30 µM was determined as 100% and the IC50 was 2.49 µM. For the same compound, in assay [1], the “effect on motility of microfilariae (in words)” value is recorded as “inhibit the motility” and the “SI Mf” value is 12.04. The “IC100 Mf” value in assay [1] (secondary screen) came out at 4.98 µM. Further, the IC50 in assay [2] (Onchocerca ochengi) is 3.45 µM. In assay [2], the “effect on motility of adult male worms (in words)” value is on record as “inhibit the motility” and the “SI Adult Male Worm” value was 8.69. Besides, the “IC100 Adult Male Worm” value in assay [2] (secondary screen) amounted to 6.90 µM. Besides, in assay [3], the killing at 30 µM is 50%, the “activity on adult female worms (in words)” value is listed as “moderately active” and the “IC100 Adult Female Worm” value was >30 µM. Also, the IC50 in assay [4] (Primates, LLC-MK2, 120 h) is ≥ 30 µM. In addition, in assay [5], the inhibition at 30 µM came out at 100%.
As for voacamine [Compound 7], the “effect on motility of microfilariae (in words)” value in assay [1] is “inhibit the motility”. Moreover, the “% Mf Motility Reduction after 24 h” value in assay [1] (primary screen, 30 μM) worked out at 100%. Further, the “IC100 Mf” value in assay [1] (secondary screen) was determined as 10 µM. Further, the IC50 in assay [1] (secondary screen, motility) is 2.49 µM; in assay [2] (secondary screen, motility), 3.45 µM; in assay [4] (cytotoxicity, day 5, estimated from morphological deformation), ≥ 30 µM. The “effect on motility of adult male worms (in words)” value in assay [2] is listed as “inhibit the motility”. Also, the “IC100 Adult Male Worm” value in assay [2] (secondary screen) worked out at 10 µM. In addition, the “activity against Onchocerca ochengi (in words)” value in the assay with Onchocerca ochengi was “showing activity”. In assay [3], the “activity on adult female worms (in words)” value is listed as “moderately active”. The “% Adult Female Worm Death after 120 h” value in assay [3] (primary screen, 30 μM, corresponds to % inhibition of formazan formation) amounted to 65%. For the same compound, the “IC100 Adult Female Worm” value in assay [3] is >30 µM. The “% Adult Male Worm Motility Reduction after 24 h” value in assay [5] (primary screen, 30 μM) was found to be 100%.

Source of the values: article PMC7795662, “Alkaloids with Anti-Onchocercal Activity from Voacanga africana Stapf (Apocynaceae): Identification and Molecular Modeling” (Molecules, 2020).
